In patent publication US6784155B1, “Inhibitor and stimulator of stem cell proliferation and uses thereof” (Wellstat Therapeutics Corporation, priority 1996, dated 2004):
No end group written: not given here.

Key:
[1] = Distribution of ubiquitin fusion proteins between soluble fraction and precipitate of E. coli lysate (SDS-PAGE); format: physicochemical; conditions: after centrifugation of the bacterial lysate
Description: To obtain protein for assay, 100 ml starter cultures in 250 ml shake flasks were grown from single colonies by overnight incubation (16-20 hours) in 2×YT medium with ampicillin (100 μg/ml), neomycin (10 μg/ml) and 1% glucose. Shaker flask cultures were maintained at 30° C. and 250 rpm in a New Brunswick environmental shaker incubator. The next morning the culture was diluted to liter with medium Cells were induced by IPTG addition to 1 mM (final dilution) at OD600=0.5 and harvested at OD600=0.8 by centrifugation. The harvested cells were resuspended in hypotonic lysis buffer (100 μl of 50 mM Tris, pH 10.0). The bacterial cells were lysed by subjecting the suspension to three cycles of freeze-thaw (dry ice-ethanol bath for freezing and 60° C. for thawing). The suspension was then sonicated for 10 min and centrifuged at 12,000 g for 10 min. The resulting supernatant was designated as “S1”. The cell pellet was resuspended in 50 mM Tris, pH10 and 2×SDS tricine loading buffer (Novex, San Diego, Calif.) (1:1). The mixture was then heated at 95° C. for 15 min and centrifuged at 12,000 g for 10 min. The portion of the precipitate capable of being resolubilized in this manner was called “P1”. The portion of the precipitate derived from the remaining pellet was called “P2”. P2 was resuspended in loading buffer as for P1. Samples from S1, P1 and P2 were analyzed by SDS-PAGE. […]

CFU-GEMM = CFU-GEMM cycling assay, human bone marrow cells; format: cell-based
Description: To assess the bioactivity of recombinant p1-97, the CFU-GEMM cycling assay was used as in Example 18:
CD34^+ stem cells were obtained from Poietic Technologies (Gaithersburg, MD) after purification from human bone marrow by means of a CelUPro column. Cells were incubated for 48 hours with kit ligand and IL-3 and used in a CFU-GEMM cycling assay in Example 26.

[2] = test system: cobblestone area forming cells (CAFC); assay: Cobblestone assay (CAFC); format: cell-based, mouse
Description: The cobblestone assay was conducted as described by Ploemacher and colleagues (Ploemacher et al., Blood 74:2755-63, 1989; van der Sluijs et al., Exp. Hematol. 18:893-6, 1990; Ploemacher et al., Blood 78:2527-33, 1991; Ploemacher et al., J. Tiss. Cult. Meth. 13:63-68, 1991; Down and Ploemacher, Exp. Hematol. 21:213-21, 1993). The cobblestone assay measures the appearance of groups of cells (or “cobblestones”) within a monolayer of stromal cells. Very primitive stem cells will not form colonies in soft agar but do form cobblestones in the presence of a stromal monolayer. The cells which form cobblestones are referred to as “cobblestone area forming cells” (CAFC). The more differentiated (e.g., GM-CFC) progenitors form transient cobblestones which appear and then disappear within the first few weeks of culture whereas more primitive stem cells (e.g., long-term repopulating cells) form cobblestones which appear only after 4-5 weeks of culture. Thus, CAFC forming on days 7-14 of culture are enriched in CFU-GM, CAFC forming on […] are enriched in CFU-MIX, and CAFC forming on days 28-35 are enriched in long-term repopulating cells. […]
The frequency of cobblestone area forming cells (CAFC) was calculated as previously described (Ploemacher et al., Blood 78:2527-33, 1991; Ploemacher et al., J. Tiss. Cult. Meth. 13:63-68, 1991; Breems et al., Leukemia 8:1095-104, 1994). […]

CFU-MIX [3] = assay: Stimulation of cycling of quiescent murine stem cells, CFU-MIX cycling assay in vitro; format: cell-based, mouse; conditions: Table 44, 100 ng/ml, alone
CFU-MIX [4] = assay: Stimulation of cycling of quiescent murine stem cells after i.v. administration; format: in vivo; conditions: Table 43, untreated B6D2F1 mice, 150 μg/mouse i.v., marrow 24 hours later
Description: Human alpha hemoglobin was injected i.v. into untreated B6D2F1 mice. 24 hours later, the mice were sacrificed, bone marrow collected from femurs and the CFU-MIX assay conducted as in Example 24.

[5] = Table 33, CD34+ stem cells from human bone marrow, concentration printed only as (ng/ml)

Substance	fraction of bacterial lysate containing the peptide [1]	% Kill (CFU-GEMM; [5])	increase of the proportion of late-forming CAFC ([2]; cycling stem cells (testosterone propionate treated B6D2F1), 100 ng/10^6 cells, 4 hours)	effect on CAFC of non-cycling stem cells ([2]; non-cycling stem cells)	% Kill (CFU-MIX [3])	% Kill (CFU-GEMM; Table 21, human bone marrow mononuclear cells, 100 ng/ml)	% Kill (CFU-MIX [4])
FPHFDLSHGSAQV [Peptide 43-55, amino acids 43-55 of human alpha hemoglobin]	contained in the soluble fraction	0%					
Human alpha chain: purified, non-recombinant human alpha hemoglobin chain isolated by reversed-phase HPLC		0%	approximately 5 fold	no effect	48%	11%	48%
